Consider 23 molecules from patent US10010493B2, “Ester compound, and cosmetic component and cosmetic product each containing same” (Kokyu Alcohol Kogyo Co., Ltd., priority 2014, dated 2018).

Holding throughout (type): physicochemical
Data set [1] in a line: Viscosity, Brookfield viscometer DV-II+. To be noted: 25° C., spindle No. 2, 12 rpm. On the procedure: Viscosity of ester compounds was measured using Brookfield viscometer DV-II+ (spindle No. 2, 12 rpm, 25° C.). As a comparison, viscosity of oil agents commonly used in cosmetic products was also measured.
Data set [2] can be described thus: Smoothness (MIU, MMD), KES-SE Friction Tester on artificial leather. The settings on record: for MIU (mean frictional coefficient) / MMD (fluctuation of mean frictional coefficient): 25° C., 0.1 ml on artificial leather, average of three. On the procedure:
Smoothness of ester compounds was measured using KES-SE Friction Tester (Kato Tech Co., Ltd.) with a detection-unit jig (an accessory of the tester, made of silicone rubber with irregularities resembling a human finger) and artificial leather (artificial leather Supplare produced by Idemitsu Technofine Co., Ltd.). On the artificial leather, 0.1 ml of an ester compound was droped. The jig was contacted to the site on the surface of the artificial leather where the oil agent was dropped. Temperature of the leather, oil agent and jig was adjusted to 25° C. in a constant temperature bath. Then, the jig was moved back and forth once at the same site with a speed of 1 mm/s (the moving distance of the jig was approximately 80 mm in one back-and-forth movement), and a mean frictional coefficient (MIU) and a fluctuation of mean frictional coefficient (MMD) for one back-and-forth movement were measured. The measurement was performed three times and the average values of MIU and MMD were calculated, which were used as indices of smoothness. For comparison, MIU and MMD of the various ester compounds used in the viscosity measurement were also measured.

Data set [3] is described as follows: Ultraviolet absorber solubility in oily bases. Further: key: C: Soluble; N: Insoluble; (N): Since it is insoluble when ultraviolet absorber is 3%, it is judged to be probably insoluble at 5% as well. The protocol:
Their state after 1 week was evaluated visually.

Data set [4] can be described thus: Glossiness (refractive index), Abbe refractometer NTR-2T. To be noted: 20° C. On the procedure: Measurement is carried out using Abbe refractometer NTR-2T (Atago Co., Ltd.) at 20° C., and resulting values represent refractive index.
A short description of data set [5]: Compatibility with various types of oil agent. Details: key to Compatibility with Hydrogenated polyisobutene / Compatibility with Isononyl isononanoate / Compatibility with Neopentyl glycol diethylhexanoate / Compatibility with Triethylhexanoin / Compatibility with Octyldodecanol / Compatibility with Polyglyceryl-2 triisostearate / Compatibility with Diisostearyl malate / Compatibility with Olive oil / Compatibility with Isostearic acid / Compatibility with Cyclomethicone / Compatibility with Dimethicone (10 mm^2/s) / Compatibility with Ethanol / Compatibility with Glycerin / Compatibility with Squalane / Compatibility with Mineral oil: C: Compatible; N: Not compatible. The settings on record: for Compatibility with Cyclomethicone / Compatibility with Dimethicone (10 mm^2/s) / Compatibility with Ethanol / Compatibility with Glycerin / Compatibility with Hydrogenated polyisobutene / Compatibility with Isostearic acid / Compatibility with Mineral oil / Compatibility with Octyldodecanol / Compatibility with Olive oil / Compatibility with Polyglyceryl-2 triisostearate / Compatibility with Squalane / Compatibility with Triethylhexanoin: 25° C., visual after 1 week. The protocol:
Each of TCDNP and TCDDNP obtained in Synthesis Examples 1 and 8 and each of oily bases are combined with a weight ratio of 9:1 or 1:1, and dissolved in a water bath at 80-90° C. for approximately 30 min with stirring, then cooled to 50° C. with stirring, and stored in a thermostatic chamber at 25° C. Their compatibility was evaluated by visually checking the state after 1 week.

The mark [6] stands for this setting: Tinosorb S 7%, 25° C., visual after 1 week.
The mark [7] stands for this setting: Tinosorb S 5%, 25° C., visual after 1 week.
Setting [8] is: Tinosorb S 5%, judged from insolubility at 3%.
Setting [9] is: Tinosorb S 2%, 25° C., visual after 1 week.

In turn, `CCCCCCCCCCC(CO)CCCCCCCCCC` [Decyldodecanol, reference compound] gave a Viscosity in data set [1] of 69 mPa · s. In data set [2], the “MIU (mean frictional coefficient)” value worked out at 0.40 and the “MMD (fluctuation of mean frictional coefficient)” value (“MMD” below) is on record as 0.006.

For `CC(C)COC(=O)CCCCC(=O)OCC(C)C` [Diisobutyl adipate], in data set [3] (setting [6]), the “Solubility of ultraviolet absorber Tinosorb S in the component” value (shortened to “Solubility”) was “N”.

On to `CCOC(=O)CCCCCCCCCCCCCCC(C)C` [Ethyl isostearate], for which the “Solubility” value in data set [3] (setting [7]) was “N”.

Take `CC(C)CCCCCCCOC(=O)C(C)(C)C` [Isodecyl neopentanoate, reference compound]: in data set [3] (setting [7]), the “Solubility” value is given as “N”. For the same molecule, in data set [1], the Viscosity worked out at 4 mPa · s. Further, the Refractive index in data set [4] came out at 1.430. In addition, in data set [2], the “MIU (mean frictional coefficient)” value is 0.15 and the “MMD” value worked out at 0.005.

Consider `CC(C)CCCCCCOC(=O)CCCCCC(C)C` [Isononyl isononanoate], for which the “Solubility” value in data set [3] (setting [7]) is listed as “N”.

In the case of `CC(C)CCCCCCCCCCCCCCCOC(=O)C(C)(C)C` [Isostearyl neopentanoate, reference compound], the “Solubility” value in data set [3] (setting [7]) was “N”. The molecule further displayed a Viscosity in data set [1] of 14 mPa · s. The molecule further had a Refractive index in data set [4] of 1.446. Moreover, in data set [2], the “MIU (mean frictional coefficient)” value was 0.27 and the “MMD” value is 0.006.

`CC(C)CCCCCCCCCCOC(=O)CCCCCC(C)C` [Isotridecyl isononanoate, reference compound]: in data set [3] (setting [8]), the “Solubility” value is “(N)”. The molecule also displayed a Refractive index in data set [4] of 1.445.

Regarding `CCCCCCCCCC(=O)OCC(C)(C)COC(=O)CCCCCCCCC` [Neopentyl glycol dicaprate], the “Solubility” value in data set [3] (setting [6]) is given as “N”.

Turning to `CCCCC(CC)C(=O)OCC(C)(C)COC(=O)C(CC)CCCC` (stereo not shown) [Neopentyl glycol diethylhexanoate], the “Solubility” value in data set [3] (setting [7]) was “N”.

In the case of `CC(C)CCCCCC(=O)OCC(C)(C)COC(=O)CCCCCC(C)C` [Neopentyl glycol diisononanoate], the “Solubility” value in data set [3] (setting [8]) was “(N)”.

For the molecule `CCCCCCCCCCC(CO)CCCCCCCC` (stereo not shown) [Octyldodecanol, reference compound], the Viscosity in data set [1] was 49 mPa · s. Further, in data set [2], the “MIU (mean frictional coefficient)” value is recorded as 0.39 and the “MMD” value came to 0.007.

In the case of `CCCCCCCCCCCCCCCCCC(=O)OC(CCCCCC)CCCCCCCCCCC(=O)OCC(CCCCCCCC)CCCCCCCCCC` (stereo not shown) [Octyldodecyl stearoyloxy stearate, reference compound], the “Solubility” value in data set [3] (setting [9]) is recorded as “N”. This molecule showed a Viscosity in data set [1] of 96 mPa · s. Moreover, in data set [2], the “MIU (mean frictional coefficient)” value worked out at 0.41 and the “MMD” value is recorded as 0.006.

`CC(C)CCCC(C)CCCC(C)CCCCC(C)CCCC(C)CCCC(C)C` (stereo not shown) [Squalane, reference compound] came in with a Viscosity in data set [1] of 32 mPa · s. For the same molecule, in data set [2], the “MIU (mean frictional coefficient)” value was 0.40 and the “MMD” value came out at 0.007.

In data set [1], `CC(C)(C)C(=O)OCC1CC2CC1C1CCC(COC(=O)C(C)(C)C)C21` (stereo not shown) [TCDDNP, 3,8-bis-(neopentanoyloxymethyl)-tricyclo[5.2.1.0^2,6]decane] came in with a Viscosity of 462 mPa · s. For the same molecule, in data set [4], the Refractive index is 1.472. Moreover, the “Compatibility with the oil agents (overall)” value in data set [5] was “excellent compatibility with the oil agents other than glycerin”. Further, in data set [5] (10%), the “Compatibility with Cyclomethicone” value is on record as “C”, the “Compatibility with Dimethicone (10 mm^2/s)” value is reported as “C”, the “Compatibility with Ethanol” value was “C” and the “Compatibility with Glycerin” value was “N”. Moreover, in data set [5] (10%), the “Compatibility with Hydrogenated polyisobutene” value was “C”, the “Compatibility with Isostearic acid” value is “C”, the “Compatibility with Mineral oil” value is given as “C” and the “Compatibility with Octyldodecanol” value is reported as “C”. Further, in data set [5] (10%), the “Compatibility with Olive oil” value is listed as “C”, the “Compatibility with Polyglyceryl-2 triisostearate” value is recorded as “C”, the “Compatibility with Squalane” value is “C” and the “Compatibility with Triethylhexanoin” value is given as “C”. Also, in data set [5] (50%), the “Compatibility with Cyclomethicone” value was “C”, the “Compatibility with Dimethicone (10 mm^2/s)” value is listed as “C”, the “Compatibility with Ethanol” value was “C” and the “Compatibility with Glycerin” value was “N”. In data set [5] (50%), the “Compatibility with Hydrogenated polyisobutene” value was “C”, the “Compatibility with Isostearic acid” value was “C”, the “Compatibility with Mineral oil” value is recorded as “C” and the “Compatibility with Octyldodecanol” value was “C”. In addition, in data set [5] (50%), the “Compatibility with Olive oil” value is given as “C”, the “Compatibility with Polyglyceryl-2 triisostearate” value is listed as “C”, the “Compatibility with Squalane” value is recorded as “C” and the “Compatibility with Triethylhexanoin” value is on record as “C”. Besides, in data set [2], the “MIU (mean frictional coefficient)” value came to 0.28 and the “MMD” value is recorded as 0.006.

Turning to `CC(C)C(=O)OCC1CC2CC1C1CCCC21` (stereo not shown) [TCDIB, tricyclo[5.2.1.0^2,6]deca-8-yl-methyl isobutanoate], the Viscosity in data set [1] is on record as 15 mPa · s. Further, in data set [4], the Refractive index stood at 1.483. In data set [2], the “MIU (mean frictional coefficient)” value came out at 0.27 and the “MMD” value is 0.005.

Regarding `CC(CC(=O)OCC1CC2CC1C1CCCC21)CC(C)(C)C` (stereo not shown) [TCDIN, tricyclo[5.2.1.0^2,6]deca-8-yl-methyl isononanoate], in data set [3] (setting [7]), the “Solubility” value was “N”. The molecule also returned a Viscosity in data set [1] of 44 mPa · s. The Refractive index in data set [4] stood at 1.479. Besides, in data set [2], the “MIU (mean frictional coefficient)” value is on record as 0.31 and the “MMD” value is on record as 0.006. In addition, the “Smoothness in comparison with other oil agents” value in data set [2] (comparison of MIU at similar viscosity) was “superior smoothness than squalane”.

The molecule `CCCCC(=O)OCC1CC2CC1C1CCCC21` (stereo not shown) [TCDP, tricyclo[5.2.1.0^2,6]deca-8-yl-methyl-n-pentanoate] yielded a Viscosity in data set [1] of 15 mPa · s. In addition, in data set [4], the Refractive index is on record as 1.484. In addition, in data set [2], the “MIU (mean frictional coefficient)” value was 0.29 and the “MMD” value is reported as 0.005.

Regarding Ethylhexyl hydroxystearate, in data set [3] (setting [8]), the “Solubility” value is given as “(N)”.

On to Ethylhexyl isononanoate, for which the “Solubility” value in data set [3] (setting [7]) is reported as “N”.

As for Isopropyl dimerate, the “Solubility” value in data set [3] (setting [9]) is “N”.

“Pentaerythrityl tetraisostearate [reference compound]” returned a Refractive index in data set [4] of 1.468.

Turning to “Polyglyceryl-2 triisostearate [reference compound]”, in data set [1], the Viscosity was determined as 339 mPa · s. For the same molecule, in data set [2], the “MIU (mean frictional coefficient)” value is 0.31 and the “MMD” value was 0.008.

On to “tricyclo[5.2.1.0^2,6]deca-8-yl-methyl isostearate [TCDIS]”, for which the Viscosity in data set [1] came to 85 mPa · s. Also, the Refractive index in data set [4] was found to be 1.482. Besides, in data set [2], the “MIU (mean frictional coefficient)” value was 0.40 and the “MMD” value is 0.006.
